Assay results taken from patent US6723364B1, “Fog treatment method using a liquid composition for treating fruits and vegetables and implementing device” (Xeda International, priority 1998, dated 2004).
Converted amounts (≈) assume the structure as drawn.

Legend:
[1] = tested on: species of fungus (AA, BC, FO, GC, GR, PD, PE, PV, PhP); experiment: Fungicidal activity in vitro: total of inhibition grades over the nine species of fungus; format: cell-based; settings: sum of the grades over the nine fungi
Method: (§1) The Cristomalt medium used for the evaluations of the fungicidal activities comprises 0.1% of Cristomalt (malt extract) and 0.2% of agar.
(§2) This culture medium is, after sterilization, brought to 55° C. The terpene compound tested is then introduced in the pure form into the culture medium under warm conditions. Immediately after agitating, the medium, enriched with the terpene product, is poured into Petri dishes (diameter 9 cm, filled with 20 ml of medium). The agar-comprising medium solidifies on cooling. The Petri dishes are then inoculated with plugs, with a diameter of 6 mm, withdrawn from the edge of a culture of the tested fungus, which culture is obtained on Cristomalt medium.
(§3) Inoculation is carried out at 22° C.
(§4) The mycelial growth was determined periodically (5 to 15 days, according to the species of fungus).
The results obtained are analysed simply by using the assessment scale illustrated in Table 2:
The results obtained have been expressed in Table 3 using the scale in Table 2.

Botrytis cinerea = experiment: Fungicidal activity in vitro: mycelial growth on Cristomalt agar; format: cell-based; settings: BC; for Inhibition grades: MIC expressed on the scale of Table 2; for MIC: Botrytis cinerea, min-max range of several experiments, 22° C., read-out: MIC (content giving complete inhibition of mycelial growth)
Method: as §1, §2, §3, §4
(§5) The results are expressed in Table 3 below in terms of MIC, which is the content (in μg/ml) which makes it possible to obtain complete inhibition of mycelial growth.
(§6) In f act, each experiment was carried out several times, so that, for each terpene and for each species of fungus, a minimum value and a maximum value were obtained.

Fusarium oxysporum = experiment: as above; format: cell-based; settings: for MIC: Fusarium oxysporum, FO, min-max range of several experiments, 22° C., read-out: MIC (content giving complete inhibition of mycelial growth); for Inhibition grades: OF, MIC expressed on the scale of Table 2
Method: as §1, §2, §3, §4, §5, §6

Penicillium expansum = experiment: as above; format: cell-based; settings: PE; for Inhibition grades: MIC expressed on the scale of Table 2; for MIC: Penicillium expansum, min-max range of several experiments, 22° C., read-out: MIC (content giving complete inhibition of mycelial growth)
Method: as §1, §2, §3, §4, §5, §6

Alternaria alternata = experiment: as above; format: cell-based; settings: AA; for Inhibition grades: MIC expressed on the scale of Table 2; for MIC: Alternaria alternata, min-max range of several experiments, 22° C., read-out: MIC (content giving complete inhibition of mycelial growth)
Method: as §1, §2, §3, §4, §5, §6

Geocrichum candidum = experiment: as above; format: cell-based; settings: GC; for Inhibition grades: MIC expressed on the scale of Table 2; for MIC: min-max range of several experiments, 22° C., read-out: MIC (content giving complete inhibition of mycelial growth)
Method: as §1, §2, §3, §4, §5, §6

Gliocladium roseum = experiment: as above; format: cell-based; settings: GR; for MIC: Clonostachys rosea, min-max range of several experiments, 22° C., read-out: MIC (content giving complete inhibition of mycelial growth); for Inhibition grades: MIC expressed on the scale of Table 2
Method: as §1, §2, §3, §4, §5, §6

Phytophtora parasitica = experiment: as above; format: cell-based; settings: PhP; for Inhibition grades: MIC expressed on the scale of Table 2; for MIC: min-max range of several experiments, 22° C., read-out: MIC (content giving complete inhibition of mycelial growth)
Method: as §1, §2, §3, §4, §5, §6

Penicillium digitatum = experiment: as above; format: cell-based; settings: PD; for Inhibition grades: MIC expressed on the scale of Table 2; for MIC: Penicillium digitatum, min-max range of several experiments, 22° C., read-out: MIC (content giving complete inhibition of mycelial growth)
Method: as §1, §2, §3, §4, §5, §6

[2] = tested on: Phlyctaena vagabonda (“Gloeosporium”); experiment: as above; format: cell-based; settings: PV; for Inhibition grades: MIC expressed on the scale of Table 2; for MIC: min-max range of several experiments, 22° C., read-out: MIC (content giving complete inhibition of mycelial growth)
Method: as §1, §2, §3, §4, §5, §6

Escherichia coli = experiment: Bactericidal activity in vitro in LB agar medium; format: cell-based; settings: Escherichia sp., 37° C., read-out: MIC (concentration needed to completely inhibit the growth of the bacteria)
Method: The bactericidal activity of eugenol and isoeugenol was evaluated in vitro and compared with that of other terpenes.
The culture medium used is the following LB medium:
Bactotryptone: 1% by weight
Yeast extract: 0.5% by weight
A suspension of bacteria at 10^6 CFU/ml was prepared in sterilized water from the LB medium. 200 μl of this bacterial suspension were added to 20 ml of presterilized LB culture medium brought to 55° C. The tested terpene is then added to the culture medium. After agitation, the medium is immediately divided among Petri dishes. The medium solidifies on cooling.
Incubation is carried out at 28° C. when the bacterium is Erwinia carotovora and at 37° C. when the bacterium is Escherichia coli.
The growth of mould in the culture medium is observed. The same experiment is carried out in the absence of terpene (control experiment).
The protocol used is that described above.

potato tubers = experiment: Sprouting-inhibiting treatment of potato tubers by thermal fogging; format: in vivo; settings: after 5 months; cold room 8 to 9° C.; 45 g/tonne then 15 g/tonne every 20 days by thermal fogging
Method: The effectiveness of eugenol and of isoeugenol in the sprouting-inhibiting treatment of potato tubers was evaluated and compared with that of other terpenes.
The following compositions were used in the case of eucalyptol, eugenol, isoeugenol, limonene, safrole and terpineol:
60% by weight of terpene;
7% by weight of a nonionic emulsifier;
33% by weight of butyl acetate.
In the case of L-carvone, the following composition was employed:
30% by weight of L-carvone;
10% by weight of ethanol;
5% by weight of nonionic emulsifier;
35% by weight of propylene glycol.
Isopropyl chlorophenylcarbamate (CIPC) is a compound used in the art as sprouting inhibitor for potato tubers. Its activity was compared with that of eugenol and of isoeugenol.
The composition based on isopropyl chloro-phenylcarbamate has the following formulation: […]
20% by weight of isopropyl chlorophenyl-carbamate;
50% by weight of propylene glycol;
10% by weight of nonionic emulsifier;
Each of the compositions tested was applied by thermal fogging. The temperature at the outlet of the thermal fogging device was 240° C., except in the case of the compositions based on L-carvone and on CIPC, where it was 180° C.
The amount of composition which has to be applied is calculated in each case so as to obtain an equivalent concentration of active material on the potato tubers.
In this example, repeated applications were carried out by following the following protocol:
45 g/tonne of tubers at the beginning of storage;
15 g/tonne of tubers every 20 days; so that, after 6 months, 165 g of active principle have been applied per tonne of tubers.
During storage, the tubers were stored in a cold room at a temperature of 8 to 9° C.

## C=CCc1ccc(O)c(OC)c1 [EUGENOL, eugenol]
[1]
  Total of the degrees of inhibition: 63
Botrytis cinerea
  Inhibition grades: 7 (20-40)
  MIC: 20 to 40 µg/mL (≈ 122 to 244 µM)
Fusarium oxysporum
  MIC: 20 to 40 µg/mL (≈ 122 to 244 µM)
  Inhibition grades: 7 (20-40)
Penicillium expansum
  Inhibition grades: 7 (20-40)
  MIC: 20 to 40 µg/mL (≈ 122 to 244 µM)
Alternaria alternata
  Inhibition grades: 7 (20-40)
  MIC: 20 to 40 µg/mL (≈ 122 to 244 µM)
Geocrichum candidum
  Inhibition grades: 8 (10-20)
  MIC: 10 to 20 µg/mL (≈ 60.9 to 122 µM)
Gliocladium roseum
  MIC: 20 to 40 µg/mL (≈ 122 to 244 µM)
  Inhibition grades: 7 (20-40)
Phytophtora parasitica
  Inhibition grades: 7 (20-40)
  MIC: 20 to 40 µg/mL (≈ 122 to 244 µM)
Penicillium digitatum
  Inhibition grades: 7 (20-40)
  MIC: 20 to 40 µg/mL (≈ 122 to 244 µM)
[2]
  Inhibition grades: 6 (40-80)
  MIC: 40 to 80 µg/mL (≈ 244 to 487 µM)
Escherichia coli
  MIC: 40 to 80 µg/mL (≈ 244 to 487 µM)
Potato tubers
  Loss in weight of the tubers: 2.6%
  Total weight of the sprouts >2 mm: 3.6 g
  Tubers at the white point stage: 45.3%
  Tubers with sprouts 2 to 5 mm: 6.2%
  Tubers with sprouts <2 mm: 35.2%
  Tubers with sprouts >2 mm: 12.0%
  Tubers with sprouts >5 mm: 5.8%
  Unsprouted tubers: 7.5%

## CC12CCC(CC1)C(C)(C)O2 [EUCALYPTOL, eucalyptol]
[1]
  Total of the degrees of inhibition: 20
Botrytis cinerea
  Inhibition grades: 2 (640-1280)
  MIC: 640 to 1280 µg/mL (≈ 4150 to 8300 µM)
Fusarium oxysporum
  MIC: 640 to 1280 µg/mL (≈ 4150 to 8300 µM)
  Inhibition grades: 2 (640-1280)
Penicillium expansum
  Inhibition grades: 1 (>1280)
  MIC: > 1280 µg/mL
Alternaria alternata
  Inhibition grades: 1 (>1280)
  MIC: > 1280 µg/mL
Geocrichum candidum
  Inhibition grades: 3 (320-640)
  MIC: 320 to 640 µg/mL (≈ 2070 to 4150 µM)
Gliocladium roseum
  MIC: 320 to 640 µg/mL (≈ 2070 to 4150 µM)
  Inhibition grades: 3 (320-640)
Phytophtora parasitica
  Inhibition grades: 3 (320-640)
  MIC: 320 to 640 µg/mL (≈ 2070 to 4150 µM)
Penicillium digitatum
  Inhibition grades: 1 (>1280)
  MIC: > 1280 µg/mL
[2]
  Inhibition grades: 4 (160-320)
  MIC: 160 to 320 µg/mL (≈ 1040 to 2070 µM)
Escherichia coli
  MIC: > 640 µg/mL
Potato tubers
  Loss in weight of the tubers: 3.2%
  Total weight of the sprouts >2 mm: 46.2 g
  Tubers at the white point stage: 10.2%
  Tubers with sprouts 2 to 5 mm: 36.3%
  Tubers with sprouts <2 mm: 26.7%
  Tubers with sprouts >2 mm: 58.4%
  Tubers with sprouts >5 mm: 22.4%
  Unsprouted tubers: 4.4%

## CC=Cc1ccc(O)c(OC)c1 [ISOEUGENOL, isoeugenol]
[1]
  Total of the degrees of inhibition: 64
Botrytis cinerea
  Inhibition grades: 7 (20-40)
  MIC: 20 to 40 µg/mL (≈ 122 to 244 µM)
Fusarium oxysporum
  MIC: 20 to 40 µg/mL (≈ 122 to 244 µM)
  Inhibition grades: 7 (20-40)
Penicillium expansum
  Inhibition grades: 7 (20-40)
  MIC: 20 to 40 µg/mL (≈ 122 to 244 µM)
Alternaria alternata
  Inhibition grades: 7 (20-40)
  MIC: 20 to 40 µg/mL (≈ 122 to 244 µM)
Geocrichum candidum
  Inhibition grades: 8 (10-20)
  MIC: 10 to 20 µg/mL (≈ 60.9 to 122 µM)
Gliocladium roseum
  MIC: 20 to 40 µg/mL (≈ 122 to 244 µM)
  Inhibition grades: 7 (20-40)
Phytophtora parasitica
  Inhibition grades: 7 (20-40)
  MIC: 20 to 40 µg/mL (≈ 122 to 244 µM)
Penicillium digitatum
  Inhibition grades: 7 (20-40)
  MIC: 20 to 40 µg/mL (≈ 122 to 244 µM)
[2]
  Inhibition grades: 7 (20-40)
  MIC: 20 to 40 µg/mL (≈ 122 to 244 µM)
Escherichia coli
  MIC: 40 to 80 µg/mL (≈ 244 to 487 µM)
Potato tubers
  Loss in weight of the tubers: 2.7%
  Total weight of the sprouts >2 mm: 8.5 g
  Tubers at the white point stage: 22.6%
  Tubers with sprouts 2 to 5 mm: 10.6%
  Tubers with sprouts <2 mm: 56.8%
  Tubers with sprouts >2 mm: 14.4%
  Tubers with sprouts >5 mm: 3.8%
  Unsprouted tubers: 6.2%

## C=C(C)C1CC=C(C)C(=O)C1 (centres unmarked) [CARVONE, carvone]
[1]
  Total of the degrees of inhibition: 52
Botrytis cinerea
  Inhibition grades: 7 (20-40)
  MIC: 20 to 40 µg/mL (≈ 133 to 266 µM)
Fusarium oxysporum
  MIC: 40 to 80 µg/mL (≈ 266 to 533 µM)
  Inhibition grades: 6 (40-80)
Penicillium expansum
  Inhibition grades: 5 (80-160)
  MIC: 80 to 160 µg/mL (≈ 533 to 1070 µM)
Alternaria alternata
  Inhibition grades: 6 (40-80)
  MIC: 40 to 80 µg/mL (≈ 266 to 533 µM)
Geocrichum candidum
  Inhibition grades: 5 (80-160)
  MIC: 80 to 160 µg/mL (≈ 533 to 1070 µM)
Gliocladium roseum
  MIC: 40 to 80 µg/mL (≈ 266 to 533 µM)
  Inhibition grades: 6 (40-80)
Phytophtora parasitica
  Inhibition grades: 6 (40-80)
  MIC: 40 to 80 µg/mL (≈ 266 to 533 µM)
Penicillium digitatum
  Inhibition grades: 6 (40-80)
  MIC: 40 to 80 µg/mL (≈ 266 to 533 µM)
[2]
  Inhibition grades: 5 (80-160)
  MIC: 80 to 160 µg/mL (≈ 533 to 1070 µM)
Escherichia coli
  MIC: 320 to 640 µg/mL (≈ 2130 to 4260 µM)
